According to patent US3992371A, “Penicillins substituted with heterocyclic and substituted phenyl groups” (Sumitomo Chemical Company, Limited, priority 1973, dated 1976):
≈ marks a conversion by molar mass, not a printed value. Structures can show the parent of a compound that is named as a salt.

How the values were obtained:
Assay in all cases: Minimal inhibitory concentration, agar dilution method
Type in all cases: cell-based
[1] = tested on: Klebsiella pneumoniae PCI602
Description: (§1) When determined according to the agar dilution method, the penicillins (I) afford the minimal inhibitory concentrations against test microorganisms as shown in Table 2.

Escherichia coli NIHJ = tested on: Escherichia coli NIHJ
Description: as §1

[2] = tested on: Pseudomonas aeruginosa 104
Description: as §1

[3] = tested on: Staphylococcus aureus 209P
Description: as §1

Proteus miravilis GN2425 = tested on: Proteus miravilis GN2425
Proteus vulgaris HV19 = tested on: Proteus vulgaris HV19

Row | SMILES | MIC [1] [µg/mL] | MIC (Escherichia coli NIHJ) [µg/mL] | MIC [2] [µg/mL] | MIC [3] [µg/mL] | MIC (Proteus miravilis GN2425) [µg/mL] | MIC (Proteus vulgaris HV19) [µg/mL]
1 | CC1(C)S[C@@H]2[C@H](NC(=O)C(C(=O)O)c3ccccc3)C(=O)N2[C@H]1C(=O)O (stereo partly drawn) [Carbenicillin, reference compound] | 200 (≈ 529 µM) |  |  |  |  | 
2 | CC1(C)S[C@@H]2[C@H](NC(=O)[C@H](NC(=O)c3cnc4cccnc4c3O)c3cccc(N)c3)C(=O)N2[C@H]1C(=O)O [Example 1, D-α-(4-hydroxy-1,5-naphthyridine-3-carboxamido)-m-aminobenzylpenicillin sodium salt] | 6.25 | 0.78 | 1.56 | 1.56 | 0.78 | 0.025
3 | CC1(C)S[C@@H]2[C@H](NC(=O)[C@H](NC(=O)c3cnc4cccnc4c3O)c3ccc(N)cc3)C(=O)N2[C@H]1C(=O)O [Example 2, D-α-(4-hydroxy-1,5-naphthyridine-3-carboxamido)-p-aminobenzylpenicillin sodium salt] | 12.5 | 0.78 | 1.56 | 1.56 | 1.56 | 0.025
4 | CCOC(=O)Oc1c(C(=O)N[C@@H](C(=O)N[C@@H]2C(=O)N3[C@@H]2SC(C)(C)[C@@H]3C(=O)O)c2ccc(OC)cc2)cnc2cccnc12 [Example 3, D-α-(4-ethoxycarbonyloxy-1,5-naphthyridine-3-carboxamido)-p-methoxybenzylpenicillin] | 12.5 (≈ 20 µM) | 3.13 (≈ 5.02 µM) | 3.13 (≈ 5.02 µM) | 1.56 (≈ 2.5 µM) | 6.25 (≈ 10 µM) | 0.1 (≈ 0.16 µM)
5 | COc1ccc([C@@H](NC(=O)c2cnc3cccnc3c2O)C(=O)N[C@@H]2C(=O)N3[C@@H]2SC(C)(C)[C@@H]3C(=O)O)cc1 [Example 4, D-α-(4-hydroxy-1,5-naphthyridine-3-carboxamido)-p-methoxybenzylpenicillin sodium salt] | 12.5 | 3.13 | 3.13 | 1.56 | 12.5 | 0.1
6 | CN(C)c1ccc([C@@H](NC(=O)c2cnc3cccnc3c2O)C(=O)N[C@@H]2C(=O)N3[C@@H]2SC(C)(C)[C@@H]3C(=O)O)cc1 [Example 5, D-α-(4-hydroxy-1,5-naphthyridine-3-carboxamido)-p-dimethylaminobenzylpenicillin sodium salt] | 6.25 | 3.13 | 1.56 | 1.56 | 6.25 | 0.1
7 | CC1(C)S[C@@H]2[C@H](NC(=O)[C@H](NC(=O)c3nnc4ccccc4c3O)c3cccc(N)c3)C(=O)N2[C@H]1C(=O)O [Example 6, D-α-(4-hydroxycinnoline-3-carboxamido)-m-aminobenzylpenicillin] | 12.5 (≈ 23.3 µM) | 6.25 (≈ 11.6 µM) | 6.25 (≈ 11.6 µM) | 1.56 (≈ 2.91 µM) | 12.5 (≈ 23.3 µM) | 0.78 (≈ 1.45 µM)
8 | CC(=O)Nc1cccc([C@@H](NC(=O)c2cnc3ccccc3c2OC(=O)C(C)(C)C)C(=O)N[C@@H]2C(=O)N3[C@@H]2SC(C)(C)[C@@H]3C(=O)O)c1 [Example 7, D-α-(4-pivaloyloxyquinoline-3-carboxamido)-m-acetylaminobenzylpenicillin] | 6.25 (≈ 9.44 µM) | 3.13 (≈ 4.73 µM) | 6.25 (≈ 9.44 µM) | 0.78 (≈ 1.18 µM) | 6.25 (≈ 9.44 µM) | 0.2 (≈ 0.302 µM)
9 | CCNc1ccc(C(NC(=O)c2cnc3cccnc3c2O)C(=O)N[C@@H]2C(=O)N3[C@@H]2SC(C)(C)[C@@H]3C(=O)O)cc1 (stereo partly drawn) [Example 10] | 12.5 (≈ 22.1 µM) | 0.78 (≈ 1.38 µM) | 1.56 (≈ 2.76 µM) | 1.56 (≈ 2.76 µM) | 0.78 (≈ 1.38 µM) | 0.05 (≈ 0.0886 µM)
10 | CC1(C)S[C@@H]2[C@H](NC(=O)C(NC(=O)c3cnc4cccnc4c3O)c3cccc(I)c3)C(=O)N2[C@H]1C(=O)O (stereo partly drawn) [Example 11] | 12.5 (≈ 19.3 µM) | 1.56 (≈ 2.41 µM) | 3.13 (≈ 4.83 µM) | 1.56 (≈ 2.41 µM) | 1.56 (≈ 2.41 µM) | 0.05 (≈ 0.0772 µM)
11 | CCOC(=O)Oc1c(C(=O)NC(C(=O)N[C@@H]2C(=O)N3[C@@H]2SC(C)(C)[C@@H]3C(=O)O)c2cccc(Cl)c2)cnc2cccnc12 (stereo partly drawn) [Example 12] | 12.5 (≈ 19.9 µM) | 1.56 (≈ 2.48 µM) | 3.13 (≈ 4.98 µM) | 1.56 (≈ 2.48 µM) | 1.56 (≈ 2.48 µM) | 0.05 (≈ 0.0796 µM)
12 | Cc1ccc(C(NC(=O)c2cnc3cccnc3c2O)C(=O)N[C@@H]2C(=O)N3[C@@H]2SC(C)(C)[C@@H]3C(=O)O)cc1 (stereo partly drawn) [Example 13] | 6.25 (≈ 11.7 µM) | 0.78 (≈ 1.46 µM) | 1.56 (≈ 2.91 µM) | 1.56 (≈ 2.91 µM) | 1.56 (≈ 2.91 µM) | 0.05 (≈ 0.0934 µM)
13 | CC1(C)S[C@@H]2[C@H](NC(=O)C(NC(=O)c3nc4ccccc4nc3O)c3cccc(N)c3)C(=O)N2[C@H]1C(=O)O (stereo partly drawn) [Example 14] | 12.5 (≈ 23.3 µM) | 3.13 (≈ 5.83 µM) | 0.78 (≈ 1.45 µM) | 0.78 (≈ 1.45 µM) | 12.5 (≈ 23.3 µM) | 0.78 (≈ 1.45 µM)
14 | CC1(C)S[C@@H]2[C@H](NC(=O)C(NC(=O)c3cnc4ccccc4c3O)c3cccc(N)c3)C(=O)N2[C@H]1C(=O)O (stereo partly drawn) [Example 15] | 6.25 (≈ 11.7 µM) | 3.13 (≈ 5.84 µM) | 3.13 (≈ 5.84 µM) | 0.78 (≈ 1.46 µM) | 3.13 (≈ 5.84 µM) | 0.2 (≈ 0.373 µM)
15 | Cc1ccc2c(O)c(C(=O)NC(C(=O)N[C@@H]3C(=O)N4[C@@H]3SC(C)(C)[C@@H]4C(=O)O)c3cccc(N)c3)cnc2c1 (stereo partly drawn) [Example 16] |  | 6.25 (≈ 11.4 µM) | 3.13 (≈ 5.69 µM) | 0.78 (≈ 1.42 µM) | 3.13 (≈ 5.69 µM) | 0.39 (≈ 0.71 µM)
16 | CC1(C)S[C@@H]2[C@H](NC(=O)C(NC(=O)c3cnc4cc(Cl)ccc4c3O)c3ccc(N)cc3)C(=O)N2[C@H]1C(=O)O (stereo partly drawn) [Example 17] | 6.25 (≈ 11 µM) | 3.13 (≈ 5.49 µM) | 3.13 (≈ 5.49 µM) | 0.78 (≈ 1.37 µM) | 3.13 (≈ 5.49 µM) | 0.2 (≈ 0.351 µM)

Row | SMILES | MIC [1] [µg/mL] | MIC (Escherichia coli NIHJ) [µg/mL] | MIC [2] [µg/mL] | MIC [3] [µg/mL] | MIC (Proteus miravilis GN2425) [µg/mL] | MIC (Proteus vulgaris HV19) [µg/mL]
17 | Cc1ccc2c(O)c(C(=O)NC(C(=O)N[C@@H]3C(=O)N4[C@@H]3SC(C)(C)[C@@H]4C(=O)O)c3cccc(N)c3)cnc2n1 (stereo partly drawn) [Example 18] | 6.25 (≈ 11.4 µM) | 1.56 (≈ 2.83 µM) | 1.56 (≈ 2.83 µM) | 1.56 (≈ 2.83 µM) | 1.56 (≈ 2.83 µM) | 0.025 (≈ 0.0454 µM)
18 | Cc1ccc2ncc(C(=O)NC(C(=O)N[C@@H]3C(=O)N4[C@@H]3SC(C)(C)[C@@H]4C(=O)O)c3cccc(N)c3)c(O)c2n1 (stereo partly drawn) [Example 19] | 6.25 (≈ 11.4 µM) | 0.78 (≈ 1.42 µM) | 0.78 (≈ 1.42 µM) | 1.56 (≈ 2.83 µM) | 0.78 (≈ 1.42 µM) | 0.025 (≈ 0.0454 µM)
19 | COc1ccc2c(O)c(C(=O)NC(C(=O)N[C@@H]3C(=O)N4[C@@H]3SC(C)(C)[C@@H]4C(=O)O)c3cccc(N)c3)cnc2c1 (stereo partly drawn) [Example 20] | 6.25 (≈ 11.1 µM) | 3.13 (≈ 5.53 µM) | 3.13 (≈ 5.53 µM) | 0.78 (≈ 1.38 µM) | 3.13 (≈ 5.53 µM) | 0.1 (≈ 0.177 µM)
20 | Cc1ccc2ncc(C(=O)NC(C(=O)N[C@@H]3C(=O)N4[C@@H]3SC(C)(C)[C@@H]4C(=O)O)c3ccc(N)cc3)c(O)c2n1 (stereo partly drawn) [Example 21] | 3.13 (≈ 5.68 µM) | 0.78 (≈ 1.42 µM) | 0.78 (≈ 1.42 µM) | 1.56 (≈ 2.83 µM) | 1.56 (≈ 2.83 µM) | 0.025 (≈ 0.0454 µM)
21 | CN(C)c1ccc2ncc(C(=O)NC(C(=O)N[C@@H]3C(=O)N4[C@@H]3SC(C)(C)[C@@H]4C(=O)O)c3cccc(N)c3)c(O)c2n1 (stereo partly drawn) [Example 22] | 3.13 (≈ 5.4 µM) | 0.78 (≈ 1.35 µM) | 0.78 (≈ 1.35 µM) | 1.56 (≈ 2.69 µM) | 0.78 (≈ 1.35 µM) | 0.025 (≈ 0.0431 µM)
22 | COc1ccc2ncc(C(=O)NC(C(=O)N[C@@H]3C(=O)N4[C@@H]3SC(C)(C)[C@@H]4C(=O)O)c3cccc(N)c3)c(O)c2n1 (stereo partly drawn) [Example 23] | 6.25 (≈ 11 µM) | 0.78 (≈ 1.38 µM) | 1.56 (≈ 2.75 µM) | 1.56 (≈ 2.75 µM) | 1.56 (≈ 2.75 µM) | 0.05 (≈ 0.0882 µM)
23 | CSc1ccc2ncc(C(=O)NC(C(=O)N[C@@H]3C(=O)N4[C@@H]3SC(C)(C)[C@@H]4C(=O)O)c3ccc(N)cc3)c(O)c2n1 (stereo partly drawn) [Example 24] | 6.25 (≈ 10.7 µM) | 0.78 (≈ 1.34 µM) | 1.56 (≈ 2.68 µM) | 1.56 (≈ 2.68 µM) | 0.78 (≈ 1.34 µM) | 0.025 (≈ 0.0429 µM)
24 | CC1(C)S[C@@H]2[C@H](NC(=O)C(NC(=O)c3cnc4cc([N+](=O)[O-])ccc4c3O)c3cccc(N)c3)C(=O)N2[C@H]1C(=O)O (stereo partly drawn) [Example 25] | 12.5 (≈ 21.5 µM) | 3.13 (≈ 5.39 µM) | 3.13 (≈ 5.39 µM) | 0.78 (≈ 1.34 µM) | 3.13 (≈ 5.39 µM) | 0.2 (≈ 0.344 µM)
25 | CC(=O)Nc1ccc2ncc(C(=O)NC(C(=O)N[C@@H]3C(=O)N4[C@@H]3SC(C)(C)[C@@H]4C(=O)O)c3cccc(N)c3)c(O)c2n1 (stereo partly drawn) [Example 26] | 6.25 (≈ 10.5 µM) | 0.78 (≈ 1.31 µM) | 0.78 (≈ 1.31 µM) | 1.56 (≈ 2.63 µM) | 0.78 (≈ 1.31 µM) | 0.025 (≈ 0.0421 µM)
26 | CC1(C)S[C@@H]2[C@H](NC(=O)C(NC(=O)c3cnc4cc(N)ccc4c3O)c3cccc(N)c3)C(=O)N2[C@H]1C(=O)O (stereo partly drawn) [Example 27] | 12.5 (≈ 22.7 µM) | 3.13 (≈ 5.68 µM) | 3.13 (≈ 5.68 µM) | 0.78 (≈ 1.42 µM) | 3.13 (≈ 5.68 µM) | 0.39 (≈ 0.708 µM)
27 | CC1(C)SC2C(NC(=O)C(NC(=O)c3cnc4ccc(N)nc4c3O)c3cccc(N)c3)C(=O)N2C1C(=O)O (stereo not drawn) [Example 29] | 6.25 (≈ 11.3 µM) | 0.78 (≈ 1.41 µM) | 0.78 (≈ 1.41 µM) | 1.56 (≈ 2.83 µM) | 0.78 (≈ 1.41 µM) | 0.025 (≈ 0.0453 µM)
28 | CC1(C)S[C@@H]2[C@H](NC(=O)C(NC(=O)c3cnc4ccc(O)nc4c3O)c3cccc(N)c3)C(=O)N2[C@H]1C(=O)O (stereo partly drawn) [Example 30] | 6.25 (≈ 11.3 µM) | 0.78 (≈ 1.41 µM) | 1.56 (≈ 2.82 µM) | 1.56 (≈ 2.82 µM) | 1.56 (≈ 2.82 µM) | 0.05 (≈ 0.0905 µM)
29 | CC1(C)S[C@@H]2[C@H](NC(=O)C(NC(=O)c3cc4ccccc4nc3O)c3cccc(N)c3)C(=O)N2[C@H]1C(=O)O (stereo partly drawn) [Example 31] | 12.5 (≈ 23.3 µM) | 3.13 (≈ 5.84 µM) | 3.13 (≈ 5.84 µM) | 0.78 (≈ 1.46 µM) | 3.13 (≈ 5.84 µM) | 0.39 (≈ 0.728 µM)
30 | COc1nc(OC)c2c(O)c(C(=O)NC(C(=O)NC3C(=O)N4C3SC(C)(C)C4C(=O)O)c3ccc(N)cc3)cnc2n1 (stereo not drawn) [Example 32] | 12.5 (≈ 20.9 µM) | 3.13 (≈ 5.24 µM) | 3.13 (≈ 5.24 µM) | 1.56 (≈ 2.61 µM) | 3.13 (≈ 5.24 µM) | 0.05 (≈ 0.0837 µM)
31 | CC1(C)SC2C(NC(=O)C(NC(=O)c3cnc4cncnc4c3O)c3cccc(N)c3)C(=O)N2C1C(=O)O (stereo not drawn) [Example 33] | 6.25 (≈ 11.6 µM) | 0.78 (≈ 1.45 µM) | 0.78 (≈ 1.45 µM) | 1.56 (≈ 2.9 µM) | 0.78 (≈ 1.45 µM) | 0.025 (≈ 0.0465 µM)
